Converted amounts (≈) assume the structure as drawn.
Key:
Format in all cases: functional
[1] = fT>MIC in Pseudomonas aeruginosa infected patient
[2] = fT>MIC in Pseudomonas aeruginosa infected patient at 2 g,iv administered as 3 hrs infusion every 8 hrs
Pseudomonas aeruginosa = assay: Antimicrobial activity against Pseudomonas aeruginosa isolated from infected patient by Etest method

With CO/N=C(\C(=O)N[C@@H]1C(=O)N2C(C(=O)[O-])=C(C[N+]3(C)CCCC3)CS[C@H]12)c1csc(N)n1 [CEFEPIME] the “fT>MIC” value [1] was 85.2%, the “fT>MIC” value [2] was greater than 60% and the MIC50 (Pseudomonas aeruginosa) was 3 µg/mL (≈ 6.24 µM). It also gave an MIC90 (Pseudomonas aeruginosa) of 16 µg/mL (≈ 33.3 µM).
